In patent US20220306623A1, “PYRIDYL OR PYRIMIDYL MTOR KINASE INHIBITORS” (GLAXOSMITHKLINE INTELLECTUAL PROPERTY DEVELOPMENT LIMITED, priority 2019, published 2022):

What follows are compounds tested on type I collagen deposition in primary lung fibroblasts derived from human tissue (assay: Type I collagen deposition (scar-in-a-jar) high content screening assay). Settings: Primary lung fibroblast, 72 h, human pulmonary fibroblasts, 96-well, TGFβ-1 1 ng/ml 72 h, collagen intensity, read-out: mean pIC50, type I collagen deposition (scar-in-a-jar) (converted).
Assay type: cell-based
Description: Cellular type I collagen deposition was measured by adapting a published method; scar-in-a-jar (Chen et al., 2009) to primary lung fibroblasts derived from human tissue and combining with high content analysis to permit fluorescent quantification of collagen deposited in the extracellular matrix (ECM). The human biological samples were sourced ethically and their research use was in accord with the terms of the informed consents under an IRB/EC approved protocol. Human pulmonary fibroblasts were maintained in DMEM media (Gibco, Catalogue No 21969) supplemented with 4 mM L-glutamine (Gibco Catalogue No 25030-024) and 100/heat inactivated FBS (Gibco #10270-106, Lot #42F6663K) at 37° C. in 10%/CO2. Cells were harvested and seeded at 10,000 cells per well (85 μL/well) into black walled 96 well imaging plates (BD Falcon, 353219) in assay media (0.4%/heat inactivated FBS, 4 mM L-glutamine) and incubated overnight at 37° C., 10%/CO2.
Test compounds were dissolved in 1000/DMSO to give 10 mM stocks which were further diluted (serial 1:3) to generate 10 point concentration response curves. Assay media was supplemented with 112.5 mg/ml Ficoll 70 (Sigma, Catalogue No F2878), 75 mg/ml Ficoll 400 (Sigma, Catalogue No F4375) and 50 µg/ml ascorbic acid (Sigma, Catalogue No A8960). 3 μL compound were added to 297 μL assay media (10× compound final concentration in 1% DMSO).
Diluted compounds (15 μL) were transferred to plates containing cells and incubated for 3 h at 37° C. in 10% CO2. Transforming growth factor (TGF)β-1 (R&D Systems, Catalogue No 100-B/CF) was reconstituted according to manufacturer's instructions to give 10 µg/mL (stock) and further diluted (1 in 3333) in assay media containing Ficoll and ascorbic acid. 50 μL TGFβ-1 was added to cell plates (1 ng/ml final) and cells incubated for 72 h at 37° C. in 10% CO2.
Media was removed and cells were fixed with 50 µL/well 100% ice-cold methanol (2 min). Methanol was decanted and cells washed with PBS (3×). To permeabilise, cells were incubated with PBS containing 0.1% Triton X 100 for 90 sec, followed by PBS wash (3×). Cells were incubated with mouse anti human type I collagen monoclonal antibody (Sigma, Catalogue No C2456) diluted 1:1000 in PBS overnight at 4° C. Cells were washed with PBS containing 0.05% Tween-20 (3×) and incubated with secondary alexa fluor 488 goat-anti-mouse antibody (Invitrogen, Catalogue No A11001, 1 in 500 in PBS) and Hoechst 33342 (Sigma, Catalogue No H21492), 1 in 10000 in PBS) for 1 h at RT, prior to washing with PBS containing 0.05% Tween (×3) before finally adding 200 µL/well PBS.
Type I collagen immunoreactivity was detected using the Thermofisher CellInsight NXT set to excitation and emission wavelengths for DAPI and FITC with exposure adjusted to appropriate levels. Images were analysed using Cellomics Studio software (Version 6.6.0, build 8153) and computational algorithms to quantify “collagen intensity” and “cell count”.
Data analysis was performed by determining % response values for test compounds relative to the maximum (TGFβ-1 stimulation) fitting a ‘log(inhibitor) vs. response-Variable slope (four parameters)’ curve and recording pIC50 (inverse of Log IC50) values for test compounds.

| SMILES | IC50 [µM] |
| --- | --- |
| CC[C@H]1COCCN1c1cc(C2(S(C)(=O)=O)CCNCC2)cc(-c2ccc3[nH]c(C)cc3n2)n1 [Example 18, (S)-3-ethyl-4-(6-(2-methyl-1H-pyrrolo[3,2-b]pyridin-5-yl)-4-(4-(methylsulfonyl)piperidin-4-yl)pyridin-2-yl)morpholine] | < 3.98 |
| CC[C@H]1COCC(=O)N1c1cc(CS(C)(=O)=O)cc(-c2ccc3[nH]c(CO)cc3n2)n1 [Example 27] | < 3.98 |
| CNCc1cc2nc(-c3cc(CS(C)(=O)=O)cc(N4CCO[C@H](C)[C@H]4C)n3)ccc2[nH]1 [Example 8, 1-(5-(6-((2R,3R)-2,3-dimethylmorpholino)-4-((methylsulfonyl)methyl)pyridin-2-yl)-1Hpyrrolo[3,2-b]pyridin-2-yl)-Nmethylmethanamine] | < 3.98 |
| CC[C@H]1COCCN1c1cc(CS(N)(=O)=O)nc(-c2ccc3[nH]c(CNC)cc3n2)n1 [Example 6, {6-[(3S)-3-ethylmorpholin-4-yl]-2-{2-[(methylamino)methyl]-1H-pyrrolo[3,2-b]pyridin-5-yl}pyrimidin-4-yl}methanesulfonamide] | > 3.98 |
| CC[C@H]1COCCN1c1cc(C2(S(C)(=O)=O)CCOCC2)nc(-c2ccc3[nH]c(CO)cc3n2)n1 [Example 4, (5-{4-[(3S)-3-ethylmorpholin-4-yl]-6-(4-methanesulfonyloxan-4-yl)pyrimidin-2-yl}-1H-pyrrolo[3,2-b]pyridin-2-yl)methanol] | > 3.98 |
| CC[C@H]1COCCN1c1cc(CS(C)(=O)=O)nc(-c2ccc3[nH]c(CO)cc3n2)n1 [Example 2, (S)-(5-(4-(3-ethylmorpholino)-6-((methylsulfonyl)methyl)pyrimidin-2-yl)-1H-pyrrolo[3,2-b]pyridin-2-yl)methanol] | < 3.98 |

Each compound was assayed on phosphorylated Akt at serine 473 (pAKTs473) in primary lung fibroblasts derived from explanted tissue (assay: Phosphorylated Akt (Ser473) in vitro immunoassay (MSD), fibroblasts from explanted tissue). Settings: Homo sapiens, Primary lung fibroblast, 96-well, compound 2 h, PDGF-BB 10 ng/ml 15 min, read-out: mean pIC50, pAKTs473 immunoassay (converted).
Assay type: cell-based
Text: Immunoassay using the Meso Scale Discovery (MSD) platform to measure the effect of test compounds on phosphorylated Akt at serine 473 (pAKTs473) in primary lung fibroblasts derived from explanted tissue. The human biological samples were sourced ethically and their research use was in accord with the terms of the informed consents under an IRB/EC approved protocol.
Human lung fibroblasts were routinely maintained in Dulbecco's Modified Eagle Medium (DMEM; Gibco, catalogue no. 21969-035) supplemented with 10% foetal bovine serum (FBS (heat-inactivated); Gibco, catalogue no. 10270-106) and 4 mM L-glutamine (Gibco, catalogue no. 25030024) at 37° C. in 10% CO2.
For the assay, cells were harvested using Trypsin/EDTA (Gibco, catalogue no. 25300-062), resuspended to give 1.2×10^5 cells/ml and 100 ul/well seeded into 96-well plates (Corning, Catalogue No. 3596) in DMEM supplemented with 0.4% FCS and 4 mM L-glutamine and incubated overnight at 37° C. in 10% CO2.
Test compounds were dissolved in 100% DMSO to give 10 mM stock solutions and serially diluted to generate a 10-point concentration response curve. Compounds were further diluted 100-fold into 96-well V-bottom polypropylene plates (Greiner, Catalogue no. 651201) with DMEM supplemented with 0.4% FCS and 4 mM L-glutamine to give 100 µM top compound concentration in 1% DMSO.
Compounds were further diluted 10-fold by transfer to 96-well plates containing cells ([…] top concentration, 0.1% DMSO final) and incubated for 2 h at 37° C. in 10% CO2, prior to stimulation with platelet-derived growth factor (PDGF)-BB (Gibco, Catalogue no. PHG0041) at 10 ng/ml (final) for 15 min at 37° C. in 10% CO2. Cell assay plates were then incubated on ice and treated with lysis buffer (Cell Signalling Technology, Catalogue No. 9803) containing protease and phosphatase inhibitors (Halt, Thermo Scientific, Catalogue No. 78444) for 30 min.
MSD plates (MSD, Phospho(Ser473)/Total Akt Whole Cell Lysate Kit, Catalogue No. K15100D-3) were blocked with 1×blocking buffer as per the manufacturer's instructions at RT with shaking, followed by washing (×3) with Tris-buffered saline containing 0.05% Tween-20 (TBST). Cell lysates (30 ul) were added and MSD plates incubated for 1 h at RT with shaking.
Plates were washed with TBST (×3), prior to addition of SULFO-TAG Anti-Total Akt Antibody as per the manufacturer's instructions and shaken at RT for 1 h. After washing with 1×TBST (×3), read buffer (1×) (MSD, Catalogue No. R92TC-1) was added as per the manufacturer's instructions before detecting electrochemiluminescence (MSD Sector Imager 600).
Data analysis was performed using non-linear regression analysis to determine IC50 values for test compounds. Minimum (no PDGF-BB stimulation) and maximum responses (+PDGF-BB stimulation) were monitored for assay quality control.

| SMILES | IC50 [µM] |
| --- | --- |
| CC[C@H]1COCCN1c1cc(CS(N)(=O)=O)nc(-c2ccc3[nH]c(CNC)cc3n2)n1 [Example 6, {6-[(3S)-3-ethylmorpholin-4-yl]-2-{2-[(methylamino)methyl]-1H-pyrrolo[3,2-b]pyridin-5-yl}pyrimidin-4-yl}methanesulfonamide] | < 0.1 |
| CC[C@H]1COCC(=O)N1c1cc(CS(C)(=O)=O)cc(-c2ccc3[nH]c(C)cc3n2)n1 [Example 24, (S)-5-ethyl-4-(6-(2-methyl-1H-pyrrolo[3,2-b]pyridin-5-yl)-4-((methylsulfonyl)methyl)pyridin-2-yl)morpholin-3-one] | < 0.1 |
| CC[C@H]1COCCN1c1cc(CS(C)(=O)=O)nc(-c2ccc3[nH]c(CNC)cc3n2)n1 [Example 1, [(5-{4-[(3S)-3-ethylmorpholin-4-yl]-6-(methanesulfonylmethyl)pyrimidin-2-yl}-1H-pyrrolo[3,2-b]pyridin-2-yl)methyl](methyl)amine] | < 0.1 |
| CCc1cc2nc(-c3nc(CS(C)(=O)=O)cc(N4C(=O)COC[C@@H]4CC)n3)ccc2[nH]1 [Example 15, (5S)-5-ethyl-4-(2-{2-ethyl-1H-pyrrolo[3,2-b]pyridin-5-yl}-6-(methanesulfonylmethyl)pyrimidin-4-yl)morpholin-3-one] | < 0.1 |
